Results taken from article PMC6332330, “Four New Cyclohexylideneacetonitrile Derivatives from the Hypocotyl of Mangrove (Bruguiera gymnorrhiza)” (Molecules, 2015).
Converted amounts (≈) assume the structure as drawn.

Experiments:
[1] = Toxicity in standardized culture assay; conditions: human
HBV replication = experiment: Anti-HBV antiviral assay in standardized culture assay; conditions: for EC50: Hepatitis B virus, read-out: EC50 (anti-HBV activity); for SI (CC50/EC50): selectivity index, ratio of CC50 to EC50; for activity against HBV replication (in words): human hepatoblastoma cell line, activity order 5 > 6 > 4 > 3 > 1 > 2 > 7
[2] = HBV-producing human hepatoblastoma cell line

Row | Compound | CC50 [1] | EC50 (HBV replication) | SI (CC50/EC50) (HBV replication) | CC50 [1, 2] | activity against HBV replication (in words) (HBV replication)
1 | CO[C@H]1C=C/C(=C/C#N)[C@@H](O[C@@H]2O[C@H](CO)[C@@H](O)[C@H](O)[C@H]2O)C1 [Compound 1, Menisdaurin B] | 178 ± 13.3 µg/mL (≈ 544 µM) | 23.8 ± 0.5 µg/mL (≈ 72.7 µM) | 7.5 | – | –
2 | Nc1ccn([C@@H]2CS[C@H](CO)O2)c(=O)n1 [Lamivudine, reference compound] | – | 0.1 ± 0.03 µg/mL (≈ 0.436 µM) | – | – | –
3 | O=C1C=C2C=C[C@@H](O)C[C@H]2O1 [Compound 7, menisdaurilide] | – | 80.7 ± 5.8 µg/mL (≈ 530 µM) | 2.7 | 215 ± 14.7 µg/mL (≈ 1410 µM) | lesser degree of specific activity
4 | N#C/C=C1/CC[C@H](O)C[C@@H]1O [Compound 4, Menisdaurin E] | – | 8.7 ± 1.1 µg/mL (≈ 56.8 µM) | 8.3 | 72.3 ± 4.1 µg/mL (≈ 472 µM) | –
5 | N#C/C=C1\C=C[C@H](O)C[C@@H]1O [Compound 6, coclauril] | 83.9 ± 2.3 µg/mL (≈ 555 µM) | 7.6 ± 0.5 µg/mL (≈ 50.3 µM) | 11.0 | – | –
6 | CO[C@H]1CC/C(=C/C#N)[C@@H](O[C@@H]2O[C@H](CO)[C@@H](O)[C@H](O)[C@H]2O)C1 [Compound 2, Menisdaurin C] | 165 ± 10.4 µg/mL (≈ 501 µM) | 30.7 ± 1 µg/mL (≈ 93.2 µM) | 5.4 | – | –
7 | N#C/C=C1/C=C[C@H](O)C[C@@H]1O[C@@H]1O[C@H](CO)[C@@H](O)[C@H](O)[C@H]1O [Compound 5, menisdaurin] | 57.8 ± 3.9 µg/mL (≈ 184 µM) | 5.1 ± 0.2 µg/mL (≈ 16.3 µM) | 11.3 | – | most effective activity
8 | N#C/C=C1/CC[C@H](O)C[C@@H]1O[C@@H]1O[C@H](CO)[C@@H](O)[C@H](O)[C@H]1O [Compound 3, Menisdaurin D] | 182 ± 6.8 µg/mL (≈ 577 µM) | 19.4 ± 0.3 µg/mL (≈ 61.5 µM) | 9.4 | – | –
